Like-named read-outs stand apart in the source and are kept apart here. Starred links: 1 amine or outer side, 2 acyl side, 3 side chain; linkers in the order of their positions; H or OH if unused. Positions of bridges follow the written chain, without caps; N, C: chain ends. Non-standard residues stand in square brackets, D forms with d. Residues, ends and D or L forms follow the SMILES beside them. No end group written: not given here. *: point of attachment. hTyr(3S-OH,4S-OH,3'-OSO3H) = N[C@H](C(=O)O)[C@H](O)[C@@H](O)c1ccc(O)c(OS(=O)(=O)O)c1; pTerphenylCO(4''-OnC5H11) = CCCCCOc1ccc(-c2ccc(-c3ccc(C(=O)*)cc3)cc2)cc1; Orn(4R-OH,5R-OH) = O=C([C@H](C[C@@H](O)[C@@H](O)N[*:3])N[*:1])[*:2]; hTyr(3S-OH,4S-OH) = N[C@H](C(=O)O)[C@H](O)[C@@H](O)c1ccc(O)cc1; Pro(3S-OH,4S-Me) = C[C@H]1CN[C@H](C(=O)O)[C@H]1O; X1 = CCCCCOc1ccc(-c2cc(-c3ccc(C(=O)*)cc3)no2)cc1; Gln(3R-OH) = NC(=O)C[C@@H](O)[C@H](N)C(=O)O; Hyp = O=C(O)[C@@H]1C[C@@H](O)CN1
Columns and labels:
[1] = system: C. albicans (ATCC10231, ATCC90028, ATCC90029); design: key: R: resistant; S: susceptible; DD-S: Dose dependent-susceptible; settings: ref ATCC; cited from earlier work
Text: […] T h re e times each experiment was repeated independently with similar results. Representative images are shown. (1 picture or pasted object on this page, not shown here)

[2] = Variable temperature circular dichroism; type: physicochemical
Protocol: The Ultraviolet-visible (UV-VIS) spectroscopy of samples were collected by a Shimadzu UV-3600. For FTIR, 3 mg of powdered sample and 50 mg of potassium bromide (KBr) were mixed for tablet compression analysis with transmittance at 400–4000 cm^−1, collected using an iS10 FTIR spectrometer (USA). Measurements were performed by averaging 32 scans at 4-cm^−1 resolution (signal-to-noise ratio (S/N) = 50,000). The single-molecule STM imaging experiments were performed under ambient conditions by using a Nanoscope IIIa SPM system (Bruker, USA). 10 μL of the peptide solution was incubated on the surface of freshly cleaved highly oriented pyrolytic graphite (HOPG) at room temperature for 20 min. Then the excess peptide solution was removed from the substrate surface. The STM tips were mechanically made by Ir/Pt wires (20/80). Different STM tips and samples were used in these imaging experiments to ensure reproducibility. […] Zeta potentials of samples were determined using a Zetasizer Nano ZS90 (England) via three tests in a 1-mL sample cell. All CD datum were collected using Chirascan Plus (England) and analyzed at 190-260 nm. […] Pyridine infrared (IR) were measured at 1400–1700 cm^−1 using Thermo Scientific Nicolet 380 (USA). […] The fluorescence signals (I374nm, I394nm) were collected for detecting CMC using the pyrene probe under excitation at 330 nm across various concentrations of peptides.

E. coli (CMCC(B)44102) = test: Antibacterial activity, colony counting; type: cell-based, Escherichia coli
Protocol: (§1) The antibacterial effects of Ni-IH-7 were also evaluated with E. coli (CMCC(B)44102), S. aureus (ATCC 29213) and Methicillin-resistant Staphylococcus aureus (MRSA) (ATCC43300), G. vaginalis (ATCC14018) and metronidazole-resistant G. vaginalis (provided by Xishan People’s Hospital of Wuxi City) under the similar procedures as those for C. albicans. Initially, E. coli, S. aureus and MRSA stored at -80°C were thawed and inoculated into Luria-Bertani liquid culture medium for overnight shaking. The culture volume was 5 mL, and the incubation conditions were set at 37°C in an air incubator. The next day, E. coli, S. aureus and MRSA were transferred to fresh culture medium and incubated for 2 h to activate the bacteria. The inoculum was approximately 10^5-6 CFU mL^−1. The culture volume was 10 mL, and the conditions were maintained at 37 °C in an air incubator. The quantities of E. coli, S. aureus and MRSA could reach 10^7-8 CFU mL^−1. Mixtures of 100 µL of E. coli, S. aureus and MRSA with 100 µL of Ni-IH-7 solution were prepared in 800 µL of sterile water and incubated for 0–6 h. Subsequently, 100 µL of different dilutions of the mixture were evenly spread on Luria-Bertani agar plates, followed by incubation at 37 °C from 24 to 48 h, and colony counting assay was performed to determine antibacterial efficiency. Similarly, G. vaginalis stored at −80°C was thawed and inoculated into brain-heart infusion (BHI) medium. This BHI medium consisted of brain/heart infusion broth containing 1% gelatin, 1% yeast extract, 0.1% soluble starch, 0.1% glucose, and 10% fetal bovine serum, and the inoculation process occurred overnight. The volume of the medium used was 5 mL, and the incubation condition was set at 37 °C in an incubator with 5% CO2. Following an overnight incubation post-inoculation, the necessary amount of bacterial solution was taken and transferred into fresh medium at a ratio of 1:25. This fresh medium was then cultured at 37°C with 5% CO2 for 6–8 h until the OD600 reached approximately 0.5. Next, an appropriate quantity of the bacterial inoculum was centrifuged at 4300 × g for 5 min at 4 °C to replace the bacteria from the culture medium with an equivalent volume of sterile water. For the experimental setup, 100 µL of G. vaginalis was mixed with 900 µL of sterile water as the control group. In the experimental group, 100 µL of G. vaginalis was mixed with either Ni-IH-7 solutions, Ni(Ac)2, or metronidazole in 800 µL of sterile water. The colony counting assay was performed to determine antibacterial efficiency.

S. aureus (ATCC 29213) = test: Antibacterial activity, colony counting; type: cell-based, Staphylococcus aureus
Protocol: as §1

G. vaginalis (ATCC14018) = test: Antibacterial activity, colony counting; type: cell-based, Gardnerella vaginalis
Protocol: as §1

[3] = PLC-like activity (PLC activity Assay Kit); type: biochemical
Protocol: To detect POD-like activity, 140 µL of sodium acetate buffer (pH 4.5, 0.2 M), 20 µL of 10 mM TMB, 20 µL of 1.5 mM Ni-IH-7 or 1.5 mM 4H2O·Ni(Ac)2, and 20 µL of H2O2 (50 mM) were added in order and reacted for 2 h at 37 °C. Absorbance at 652 nm was monitored using a microplate reader. PLC activity Assay Kit was used to detect PLC-like activity.

[4] = 25 μg mL-1, in sterile water, replicate 1 of n = 3
[5] = 25 μg mL-1, in sterile water, replicate 2 of n = 3
[6] = 25 μg mL-1, in sterile water, replicate 3 of n = 3
[7] = 50 μg mL-1, in sterile water, replicate 1 of n = 3
[8] = 50 μg mL-1, in sterile water, replicate 2 of n = 3
[9] = 50 μg mL-1, in sterile water, replicate 3 of n = 3
[10] = 100 μg mL-1, in sterile water, replicate 1 of n = 3
[11] = 100 μg mL-1, in sterile water, replicate 2 of n = 3
[12] = 100 μg mL-1, in sterile water, replicate 3 of n = 3

Nc1nc(=O)[nH]cc1F [5-Flucytosine]
resistance degree of C. albicans ATCC 10231 [1]: S
resistance degree of C. albicans ATCC 90028 [1]: S
resistance degree of C. albicans ATCC 90029 [1]: R

CCCCCOc1ccc(-c2ccc(-c3ccc(C(=O)N[C@H]4C[C@@H](O)[C@@H](O)NC(=O)[C@@H]5[C@@H](O)[C@@H](C)CN5C(=O)[C@H]([C@@H](C)O)NC(=O)[C@H]([C@H](O)[C@@H](O)c5ccc(O)cc5)NC(=O)[C@@H]5C[C@@H](O)CN5C(=O)[C@H]([C@@H](C)O)NC4=O)cc3)cc2)cc1 [Anidulafungin] ({pTerphenylCO(4''-OnC5H11)}-[Orn(4R-OH,5R-OH)]T[Hyp][hTyr(3S-OH,4S-OH)]T[Pro(3S-OH,4S-Me)]; lactam 1-C)
resistance degree of C. albicans ATCC 10231 [1]: R
resistance degree of C. albicans ATCC 90028 [1]: S
resistance degree of C. albicans ATCC 90029 [1]: S

CCCCCOc1ccc(-c2cc(-c3ccc(C(=O)N[C@H]4C[C@@H](O)[C@@H](O)NC(=O)[C@@H]5[C@@H](O)[C@@H](C)CN5C(=O)[C@H]([C@H](O)CC(N)=O)NC(=O)[C@H]([C@H](O)[C@@H](O)c5ccc(O)c(OS(=O)(=O)O)c5)NC(=O)[C@@H]5C[C@@H](O)CN5C(=O)[C@H]([C@@H](C)O)NC4=O)cc3)no2)cc1 [Micafungin] (X1-[Orn(4R-OH,5R-OH)]T[Hyp][hTyr(3S-OH,4S-OH,3'-OSO3H)][Gln(3R-OH)][Pro(3S-OH,4S-Me)]; lactam 1-C)
resistance degree of C. albicans ATCC 10231 [1]: S
resistance degree of C. albicans ATCC 90028 [1]: S
resistance degree of C. albicans ATCC 90029 [1]: S

CC[C@H](C)C[C@H](C)CCCCCCCCC(=O)N[C@H]1C[C@@H](O)[C@@H](NCCN)NC(=O)[C@@H]2[C@@H](O)CCN2C(=O)[C@H]([C@H](O)CCN)NC(=O)[C@H]([C@H](O)[C@@H](O)c2ccc(O)cc2)NC(=O)[C@@H]2C[C@@H](O)CN2C(=O)[C@H]([C@@H](C)O)NC1=O [Caspofungin]
resistance degree of C. albicans ATCC 10231 [1]: S
resistance degree of C. albicans ATCC 90028 [1]: S
resistance degree of C. albicans ATCC 90029 [1]: S

OC(Cn1cncn1)(Cn1cncn1)c1ccc(F)cc1F [Fluconazole]
resistance degree of C. albicans ATCC 10231 [1]: R
resistance degree of C. albicans ATCC 90028 [1]: S
resistance degree of C. albicans ATCC 90029 [1]: S

CCC(C)n1ncn(-c2ccc(N3CCN(c4ccc(OCC5COC(Cn6cncn6)(c6ccc(Cl)cc6Cl)O5)cc4)CC3)cc2)c1=O (centres unmarked) [Itraconazole]
resistance degree of C. albicans ATCC 10231 [1]: R
resistance degree of C. albicans ATCC 90028 [1]: DD-S
resistance degree of C. albicans ATCC 90029 [1]: S

IHIHICI [IH-7]
thermal stability of conformation ([2]; variable temperature CD, 20–95 °C): changed from random coil at low temperature to α-helix at high temperature

IHIHICI [Ni-IH-7]
thermal stability of conformation [2]: retained β-sheet conformation
resistance to enzymatic degradation by snailase (snailase): considerable resistance to enzymatic degradation
resistance to enzymatic degradation by neutral protease (neutral protease): considerable resistance to enzymatic degradation
resistance to enzymatic degradation by lyticase (lyticase): considerable resistance to enzymatic degradation

C[C@@H](c1ncncc1F)[C@](O)(Cn1cncn1)c1ccc(F)cc1F [Voriconazole]
resistance degree of C. albicans ATCC 10231 [1]: S
resistance degree of C. albicans ATCC 90028 [1]: S
resistance degree of C. albicans ATCC 90029 [1]: S

CC(=O)[O-].CC(=O)[O-].O.O.O.O.[Ni+2] [Ni2+, nickel acetate]
Antimicrobial activity toward E. coli (Figure 7a) (E. coli (CMCC(B)44102); [4]): 6.041
Antimicrobial activity toward E. coli (Figure 7a) (E. coli (CMCC(B)44102); [5]): 6.4456
Antimicrobial activity toward E. coli (Figure 7a) (E. coli (CMCC(B)44102); [6]): 6.497
Antimicrobial activity toward E. coli (Figure 7a) (E. coli (CMCC(B)44102); [7]): 5.633
Antimicrobial activity toward E. coli (Figure 7a) (E. coli (CMCC(B)44102); [8]): 6.487
Antimicrobial activity toward E. coli (Figure 7a) (E. coli (CMCC(B)44102); [9]): 6.525
Antimicrobial activity toward E. coli (Figure 7a) (E. coli (CMCC(B)44102); [10]): 5.929
Antimicrobial activity toward E. coli (Figure 7a) (E. coli (CMCC(B)44102); [11]): 6.479
Antimicrobial activity toward E. coli (Figure 7a) (E. coli (CMCC(B)44102); [12]): 6.497
Antimicrobial activity toward S. aureus (Figure 7b) (S. aureus (ATCC 29213); [4]): 7.5682
Antimicrobial activity toward S. aureus (Figure 7b) (S. aureus (ATCC 29213); [5]): 6.875
Antimicrobial activity toward S. aureus (Figure 7b) (S. aureus (ATCC 29213); [6]): 7.049
Antimicrobial activity toward S. aureus (Figure 7b) (S. aureus (ATCC 29213); [7]): 7.146
Antimicrobial activity toward S. aureus (Figure 7b) (S. aureus (ATCC 29213); [8]): 6.498
Antimicrobial activity toward S. aureus (Figure 7b) (S. aureus (ATCC 29213); [9]): 7.364
Antimicrobial activity toward S. aureus (Figure 7b) (S. aureus (ATCC 29213); [10]): 6.991
Antimicrobial activity toward S. aureus (Figure 7b) (S. aureus (ATCC 29213); [11]): 7.161
Antimicrobial activity toward S. aureus (Figure 7b) (S. aureus (ATCC 29213); [12]): 7.352
Antimicrobial activity toward G. vaginalis (Figure 7c) (G. vaginalis (ATCC14018); 10 μg mL-1, in sterile water, replicate 1 of n = 3): 5.431
Antimicrobial activity toward G. vaginalis (Figure 7c) (G. vaginalis (ATCC14018); 10 μg mL-1, in sterile water, replicate 2 of n = 3): 5.477
Antimicrobial activity toward G. vaginalis (Figure 7c) (G. vaginalis (ATCC14018); 10 μg mL-1, in sterile water, replicate 3 of n = 3): 5.4624
Antimicrobial activity toward G. vaginalis (Figure 7c) (G. vaginalis (ATCC14018); [7]): 5.826
Antimicrobial activity toward G. vaginalis (Figure 7c) (G. vaginalis (ATCC14018); [8]): 5.602
Antimicrobial activity toward G. vaginalis (Figure 7c) (G. vaginalis (ATCC14018); [9]): 5.74
Antimicrobial activity toward G. vaginalis (Figure 7c) (G. vaginalis (ATCC14018); [10]): 5.13
Antimicrobial activity toward G. vaginalis (Figure 7c) (G. vaginalis (ATCC14018); [11]): 5.041
Antimicrobial activity toward G. vaginalis (Figure 7c) (G. vaginalis (ATCC14018); [12]): 5.1038
PLC-like activity (Figure 5d) ([3]; replicate 1 of n = 3): 0.0001855
PLC-like activity (Figure 5d) ([3]; replicate 2 of n = 3): 0.002181
PLC-like activity (Figure 5d) ([3]; replicate 3 of n = 3): 0.003085

Source: paper PMC11224359, “Stable peptide-assembled nanozyme mimicking dual antifungal actions” (Nature Communications, 2024)
